In US11883387B2, “PqsR inverse agonists” (HELMHOLTZ-ZENTRUM FÜR INFEKTIONSFORSCHUNG GMBH, priority 2018, dated 2024):
pIC50: −log10 of the molar value.

Assays:
[1] = Kinetic Turbidimetric Aqueous Solubility at room temperature for 5 min; type: physicochemical; conditions: PBS buffer, kinetic from dmso stock, 2% DMSO
Procedure: Kinetic Turbidimetric Aqueous Solubility at room temperature for 5 min. Test compound was diluted in PBS buffer to give a range of concentrations (typically 0.4, 2, 4, 20, 40, 100, and 200 μM, final DMSO concentration 2%) and incubated at room temperature for 5 min. Absorbance was measured at a wavelength of 620 nm and the solubility was estimated from the concentration of test compound that produces an increase in absorbance above the vehicle control (i.e., […]). Data was analyzed by fitting a four parameter sigmoidal function to the measured and normalized absorbances and AUC calculation providing access to Log S (decadic logarithm of the solubility).

[2] = target: PqsR (Pseudomonas aeruginosa, UniProt Q9I4X0); assay: E. coli based β-galactosidase reporter gene assay (PqsR inverse agonistic activity); type: cell-based; set-up: expressed in transfected cells; host or cells: Escherichia coli DH5α
Procedure: Inhibition of pqsR-dependent gene expression of test compounds was determined in an E. coli based β-galactosidase reporter gene assay.[19] Escherichia coli DH5α was transfected with pEAL08-2 plasmid encoding pqsR under control of promoter tac and β-galactosidase reporter gene lacZ under control of promoter pqsA. Antagonistic effects of compounds were evaluated in the presence of/in competition to 50 nM PQS. A positive control was used to ensure the reliability of individual assays. First, PQS was diluted in methanol and added to the wells of a glass coated 96-deep-well plate, and the solvent was evaporated. Then, compounds were added in 5 μL DMSO to final concentrations of 0.001-10 μM. Overnight cultures of E. coli DH5a×pEAL08-2 were diluted 1:100 in LB medium with ampicillin (50 μg/ml) and incubated at 37° C. with shaking until it reached an OD600 of 0.2. Finally, 995 μL of culture was added to each well and the p-galactosidase activity was determined by ortho-nitrophenyl-p-galactoside conversion in permeabilized cells after a 2.5 h incubation period (37° C., 180 rpm). OD600, OD420, and OD550 were measured using POLARstar Omega (BMG Labtech, Ortenberg, Germany), and the activity was expressed as ratio of the slope of β-galactosidase activity between basal control (no PQS) and solvent control. IC50 values of antagonists were determined by variation of the concentration of the test compounds.

[3] = system: P. aeruginosa pyocyanin production; assay: Pyocyanin assay; type: cell-based, P. aeruginosa PA14; conditions: Pseudomonas aeruginosa, PA14, 16 h, read-out: IC50-value towards pyocyanin production, PA14 in PPGAS medium, 16 h
Procedure: Inhibition of P. aeruginosa pyocyanin production by compounds was determined photometrically as described before.[20] In short, an overnight culture of PA14 in PPGAS medium was washed, diluted in medium to a start OD600 of 0.02, and incubated for 16 h (37° C., 200 rpm, relative humidity 75%) in the presence of test compounds. Then, cultures were extracted with chloroform and re-extracted with 0.2 M HCl. Protonated red colored pyocyanin was determined by measuring OD520 and normalizing to OD600.

Chain of PqsR (Q9I4X0 whole entry): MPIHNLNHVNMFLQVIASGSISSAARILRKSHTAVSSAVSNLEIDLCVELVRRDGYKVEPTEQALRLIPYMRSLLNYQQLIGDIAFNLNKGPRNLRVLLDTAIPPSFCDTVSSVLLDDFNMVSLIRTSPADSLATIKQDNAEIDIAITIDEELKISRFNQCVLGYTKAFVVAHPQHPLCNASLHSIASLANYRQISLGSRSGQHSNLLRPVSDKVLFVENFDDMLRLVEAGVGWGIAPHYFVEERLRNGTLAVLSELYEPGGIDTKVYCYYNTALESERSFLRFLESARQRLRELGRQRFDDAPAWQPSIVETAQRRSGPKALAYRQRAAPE

Compound	solubility at 5 min [1] [µM]	pIC50 [2]	pIC50 [3]
FC(F)(F)c1cc(NCc2cn(-c3ccc(Oc4cccnc4)c(Cl)c3)nn2)ccn1 [Compound 031, N-((1-(3-Chloro-4-(pyridin-3-yloxy)phenyl)-1H-1,2,3-triazol-4-yl)methyl)-2-(trifluoromethyl)pyridin-4-amine]	> 25	–	–
FC(F)(F)c1cc(NCc2cn(-c3ccc(Oc4cccnc4)cc3)nn2)ccn1 [Compound 033, N-((1-(4-(Pyridin-3-yloxy)phenyl)-1H-1,2,3-triazol-4-yl)methyl)-2-(trifluoromethyl)pyridin-4-amine]	> 25	≥ 7.30	–
CC(C)Oc1ccc(-n2cc(CNc3ccnc(C(F)(F)F)c3)nn2)cc1 [Compound 035, N-((1-(4-Isopropoxyphenyl)-1H-1,2,3-triazol-4-yl)methyl)-2-(trifluoromethyl)pyridin-4-amine]	≥ 100	≥ 7.30	–
CSc1ccc(-n2cc(CNc3ccnc(C(F)(F)F)c3)nn2)cc1Cl [Compound 038, N-((1-(3-Chloro-4-(methylthio)phenyl)-1H-1,2,3-triazol-4-yl)methyl)-2-(trifluoromethyl)pyridin-4-amine]	> 25	≥ 7.30	–
FC(F)(F)c1cc(NCc2cn(-c3ccc(-n4ccc5ccncc54)cc3)nn2)ccn1 [Compound 043, N-((1-(4-(1H-pyrrolo[2,3-c]pyridin-1-yl)phenyl)-1H-1,2,3-triazol-4-yl)methyl)-2-(trifluoromethyl)pyridin-4-amine]	> 25	≥ 7.30	–
FC(F)(F)c1cc(NCc2cn(-c3ccc(-n4ccc5cccnc54)cc3)nn2)ccn1 [Compound 044, N-((1-(4-(1H-pyrrolo[2,3-b]pyridin-1-yl)phenyl)-1H-1,2,3-triazol-4-yl)methyl)-2-(trifluoromethyl)pyridin-4-amine]	> 10	≥ 7.30	–
FC(F)(F)c1cc(SCc2cn(-c3cccc(Cl)c3)nn2)ccn1 [Compound 056, 4-(((1-(3-Chlorophenyl)-1H-1,2,3-triazol-4-yl)methyl)thio)-2-(trifluoromethyl)pyridine]	> 25	6.00 to 6.60	–
COc1ccc(-c2ncc(CNc3cc(N)nc(C(F)(F)F)n3)s2)cc1Cl [Compound 070, N^4-((2-(3-chloro-4-methoxyphenyl)thiazol-5-yl)methyl)-2-(trifluoromethyl)-pyrimidine-4,6-diamine]	> 25	–	–
FC(F)(F)c1cc(NCc2nc(-c3ccc(Oc4ccccc4)cc3)cs2)ccn1 [Compound 079, N-((4-(4-Phenoxyphenyl)thiazol-2-yl)methyl)-2-(trifluoromethyl)pyridin-4-amine]	> 25	6.00 to 6.60	–
COc1ncc(-c2nc(CNc3ccnc(C(F)(F)F)c3)cs2)cc1Cl [Compound 084, N-((2-(5-Chloro-6-methoxypyridin-3-yl)thiazol-4-yl)methyl)-2-(trifluoromethyl)pyridin-4-amine]	> 25	6.60 to 7.29	–
CC(C)Oc1ccc(-c2ncc(CNc3cc(Cl)nc(C(F)(F)F)c3)s2)cc1Cl [Compound 094, 2-Chloro-N-((2-(3-chloro-4-isopropoxyphenyl)thiazol-5-yl)methyl)-6-(trifluoromethyl)pyridin-4-amine]	–	≥ 7.30	≥ 6.60
COc1ncc(-c2ccc(CNc3ccnc(C(F)(F)F)c3)nc2)cc1Cl [Compound 101, N-((5′-Chloro-6′-methoxy-[3,3′-bipyridin]-6-yl)methyl)-2-(trifluoromethyl)pyridin-4-amine]	> 25	6.60 to 7.29	–
FC(F)(F)c1cc(SCc2ccc(-c3ccc(Cl)cc3)cn2)ccn1 [Compound 111, 4-(((5-(4-Chlorophenyl)pyridin-2-yl)methyl)thio)-2-(trifluoromethyl)pyridine]	> 10	–	–
Nc1cc(SCc2nc3cc(Cl)c(Cl)cc3[nH]2)nc(C(F)(F)F)n1 [Compound 117, 6-(((5,6-Dichloro-1H-benzo[d]imidazol-2-yl)methyl)thio)-2-(trifluoromethyl)pyrimidin-4-amine]	> 50	6.60 to 7.29	–
FC(F)(F)c1cc(OCc2nc3cc(Cl)c(Cl)cc3[nH]2)ccn1 [Compound 120, 5,6-Dichloro-2-(((2-(trifluoromethyl)pyridin-4-yl)oxy)methyl)-1H-benzo[d]imidazole]	> 50	6.00 to 6.60	–
FC(F)(F)c1cc(NCc2cn(-c3ccc(Oc4cccnc4)cc3)nn2)cc(Cl)n1 [Compound 141, 2-chloro-N-((1-(4-(pyridin-3-yloxy)phenyl)-1H-1,2,3-triazol-4-yl)methyl)-6-(trifluoromethyl)pyridin-4-amine]	–	≥ 7.30	≥ 6.60
Fc1ncccc1Oc1ccc(-n2cc(CNc3cc(Cl)nc(C(F)(F)F)c3)nn2)cc1 [Compound 142, 2-chloro-N-((1-(4-((2-fluoropyridin-3-yl)oxy)phenyl)-1H-1,2,3-triazol-4-yl)methyl)-6-(trifluoromethyl)pyridin-4-amine]	–	≥ 7.30	≥ 6.60
Fc1ccccc1Oc1ccc(-n2cc(CNc3cc(Cl)nc(C(F)(F)F)c3)nn2)cc1 [Compound 143, 2-chloro-N-((1-(4-(2-fluorophenoxy)phenyl)-1H-1,2,3-triazol-4-yl)methyl)-6-(trifluoromethyl)pyridin-4-amine]	–	≥ 7.30	≥ 6.60
FC(F)(F)c1cc(NCc2cn(-c3ccc(-n4ncc5ccncc54)cc3)nn2)ccn1 [Compound 148, N-((1-(4-(1H-pyrazolo[3,4-c]pyridin-1-yl)phenyl)-1H-1,2,3-triazol-4-yl)methyl)-2-(trifluoromethyl)pyridin-4-amine]	–	≥ 7.30	6.00 to 6.60
FC(F)(F)c1cc(NCc2cn(-c3ccc(OC4COC4)c(Cl)c3)nn2)ccn1 [Compound 152, N-((1-(3-chloro-4-(oxetan-3-yloxy)phenyl)-1H-1,2,3-triazol-4-yl)methyl)-2-(trifluoromethyl)pyridin-4-amine]	–	≥ 7.30	5.30 to 6.00
CC(C)Oc1ccc(-n2cc(CNc3cc(C#N)nc(C(F)(F)F)c3)nn2)cc1Cl [Compound 156, 4-(((1-(3-chloro-4-isopropoxyphenyl)-1H-1,2,3-triazol-4-yl)methyl)amino)-6-(trifluoromethyl)picolinonitrile]	–	≥ 7.30	6.00 to 6.60
CC(C)Oc1ccc(-n2cc(CNc3cc(Cl)nc(Cl)c3)nn2)cc1Cl [Compound 158, 2,6-dichloro-N-((1-(3-chloro-4-isopropoxyphenyl)-1H-1,2,3-triazol-4-yl)methyl)pyridin-4-amine]	–	≥ 7.30	≥ 6.60
CC(C)Oc1ccc(-n2cc(CNc3cc(C#N)nc(C#N)c3)nn2)cc1Cl [Compound 159, 4-(((1-(3-chloro-4-isopropoxyphenyl)-1H-1,2,3-triazol-4-yl)methyl)amino)pyridine-2,6-dicarbonitrile]	–	≥ 7.30	≥ 6.60
CC(C)Oc1ccc(-c2ncc(CNc3cc(Cl)nc(Cl)c3)s2)cc1 [Compound 162, 2,6-Dichloro-N-((2-(4-isopropoxyphenyl)thiazol-5-yl)methyl)pyridin-4-amine]	–	≥ 7.30	≥ 6.60
Fc1ccc(Oc2ccc3[nH]c(CSc4ccnc(C(F)(F)F)c4)nc3c2)cc1 [Compound 173, 5-(4-fluorophenoxy)-2-(((2-(trifluoromethyl)pyridin-4-yl)thio)methyl)-1H-benzo[d]imidazole]	> 25	–	6.00 to 6.60
Nc1cc(SCc2nc3cc(Oc4cccnc4)ccc3[nH]2)nc(C(F)(F)F)n1 [Compound 174, 6-(((5-(pyridin-3-yloxy)-1H-benzo[d]imidazol-2-yl)methyl)thio)-2-(trifluoromethyl)pyrimidin-4-amine]	≥ 100	–	6.00 to 6.60
Clc1cc(SCc2nc3cc(Oc4ccccc4)ccc3[nH]2)ccn1 [Compound 178, 2-(((2-chloropyridin-4-yl)thio)methyl)-5-phenoxy-1H-benzo[d]imidazole]	–	6.60 to 7.29	6.00 to 6.60
FC(F)(F)c1cc(SCc2nc3cc(Oc4ccccc4)ccc3[nH]2)cc(Cl)n1 [Compound 184, 2-(((2-chloro-6-(trifluoromethyl)pyridin-4-yl)thio)methyl)-5-phenoxy-1H-benzo[d]imidazole]	–	≥ 7.30	≥ 6.60
